Experimental data taken from patent US20050261349A1, “Medicine for prevention or treatment of diabetes” (priority 2004, published 2005).

System: C57BL/KsJ db/db mice
Experiment: Hypoglycemic effect of single or combined oral administration in db/db mice (plasma glucose concentration)
Type: in vivo, mouse
Conditions: 14th day, 2 hours after oral administration; for Decreasing rate (of plasma glucose concentration vs control group): calculated from group means vs control group; for Plasma glucose concentration: mean±standard deviation for 6 mice, control group 519 ± 69
Procedure: As test animals, C57BL/KsJ db/db mice were used, which were created in Jackson Laboratory (USA) and known as an obesity, hyperlipemia, hyperinsulinemia, and insulin-resistant model (Journal of Clinical Investigation, 85, pp 962-967, 1990). Blood was collected from the orbital venous plexus of each 7-week-old db/db mouse using a heparin-treated capillary tube, and centrifugation was performed to collect plasma. Thereafter, the plasma glucose concentration (Glucose CII-Test Wako (Wako Pure Chemical Industries, Ltd.)), the insulin concentration (Lebis Insulin Kit: for mouse-T (SHIBAYAGI)), and the triglyceride concentration (Triglyceride E-Test Wako (Wako Pure Chemical Industries, Ltd.)) were measured for classification. The classification was performed so that distribution of each measurement item is uniform for each group by block allocation based on many variables in which the plasma glucose concentration is most emphasized using the measured values of the plasma glucose concentration, the body weight, the insulin concentration, and the triglyceride concentration. […] Two hours after the administration, blood was collected from the orbital venous plexus, and the plasma thereof was collected to measure the plasma glucose concentration. […] Each plasma glucose concentration is expressed as mean±standard deviation for 6 mice of each group. Each decreasing rate is calculated from ((mean of plasma glucose concentration of control group)−(mean of plasma glucose concentration of each group))/(mean of plasma glucose concentration of control group)×100, while each relative index is calculated from (mean of plasma glucose concentration of each group)/(mean of plasma glucose concentration of control group).

## COc1ccc(Cl)cc1C(=O)NCCc1ccc(S(=O)(=O)NC(=O)NC2CCCCC2)cc1 [Glibenclamide]
  Relative index (mean plasma glucose of group / mean of control group): 0.79
  Decreasing rate (of plasma glucose concentration vs control group): 21%
  Plasma glucose concentration: 412 ± 153 mg/dL
Listed as glibenclamide
  Decreasing rate (of plasma glucose concentration vs control group): 21%

## O=C([O-])C(Cl)(Cl)CCCCCCCCCCc1ccc(Cl)cc1.[Na+] [sodium 2,2-dichloro-12-(4-chlorophenyl)-dodecanoate]
  Relative index (mean plasma glucose of group / mean of control group): 0.49
  Decreasing rate (of plasma glucose concentration vs control group): 51%
  Plasma glucose concentration: 253 ± 75 mg/dL
Listed as sodium 2,2-dichloro-12-(4-chlorophenyl)-dodecanoate
  Decreasing rate (of plasma glucose concentration vs control group): 51%
